Where a name gives a salt, the structure may show the parent alone.
Assays:
malignant lung tumor = experiment: Analysis of effects of landiolol hydrochloride in patients who underwent lung resection surgery (recurrence-free and overall survival, Kaplan-Meier); format: in vivo, human
Procedure: Ethics committee approval was obtained before the study was started. Among the patients who underwent lung lobectomy, the outcomes were compared between those who were treated with landiolol hydrochloride and those who were not treated with it.
For each patient the following information was drawn from the medical chart from May 2012 to Mar. 31, 2017 and recorded in clinical report form (CRF). • Background of the patient (date of birth, sex, stage of lung cancer, weight, height, and performance status) • Date of the lung cancer surgery • Whether landiolol hydrochloride was administered or not, and if administered, the dose thereof • Date on which recurrence was diagnosed (date of diagnostic imaging or date on which recurrence was clinically diagnosed) • Date on which recurrence-free survival was last confirmed • Date of death • Date on which survival was last confirmed • Whether adjuvant chemotherapy was applied or not
The 2-year recurrence-free survival rate was compared between the patients who had been treated with landiolol hydrochloride and the patients who had not been treated with it to evaluate the effect of landiolol hydrochloride.
Kaplan-Meier method as described below was employed to calculate the 2-year recurrence-free survival rate.
The recurrence was defined as follows; • The recurrence included both of recurrence diagnosed on the basis of diagnostic imaging and clinical recurrence diagnosed on the basis of aggravation of a symptom instead of the diagnostic imaging. The date of recurrence was the date of the diagnostic imaging or the date on which the clinical recurrence was diagnosed. Even if an increased tumor marker was detected previously, the fact alone was not regarded as indicating recurrence and the date of recurrence was the date of the diagnostic imaging or the date on which the clinical recurrence was diagnosed. When no recurrence was diagnosed during the observation period, the patients were censored on the day of final confirmation of recurrence-free survival. • When recurrence was diagnosed by the diagnostic imaging, the event was regarded as having occurred on the date of the diagnostic imaging that gave the definitive diagnosis, not the date of the diagnostic imaging that raised the suspicion of recurrence. When recurrence was clinically diagnosed, the event was regarded as having occurred on the date of the diagnosis. • Definitive diagnosis of recurrence may be based on biopsy analysis. When recurrence was successfully diagnosed by the clinical diagnosis before the biopsy analysis, the event was regarded as having occurred on the date of the clinical diagnosis. When recurrence was not successfully diagnosed by the clinical diagnosis alone, but finally diagnosed by the biopsy analysis, the event was regarded as having occurred on the date of the biopsy analysis. • Occurrence of any one of secondary cancer, metachronous double cancers, and metachronous multiple cancers was not regarded as the event or the censor. Unless another event was observed, the patient was regarded as being recurrence-free. […]
The recurrence-free survival and the overall survival were calculated according to the following equations; • The recurrence-free survival (days)=“date of diagnosis of recurrence or date of death for any cause, whichever came earlier”−“date of surgery”+1 • The overall survival (days)=“date of death for any cause”−“date of surgery”+1 […]

[1] = system: non-small cell lung cancer; experiment: Multicenter, unblinded, randomized, controlled investigator-initiated clinical trial: perioperative landiolol hydrochloride to suppress postsurgical recurrence; format: in vivo, human; details: 2.5 μg/kg/min at the beginning, adjusted 0.5 to 5 μg/kg/min; continuous iv from immediately before anesthetic induction for 72 hours
Procedure: Patients with non-small cell lung cancer who will undergo surgery for complete resection of the cancer are involved in the study. For evaluating effectiveness and safety of landiolol hydrochloride in the patients, a multicenter, unblinded, randomized, controlled, investigator-initiated clinical trial is carried out as described below. The control group includes the patients who undergo the surgery but are not treated with landiolol hydrochloride.
Primary endpoints: recurrence-free survival (RFS) over first two postoperative years and overall survival (OS)
Secondary endpoints: <Effectiveness> For example, whether the patients are subjected to treatment of recurrence or not, and if subjected, the period until the treatment; the time until OS or the treatment of recurrence, <Safety> adverse events, incidence of postoperative complication, blood pressure, 12-lead electrocardiogram, and general laboratory test
Dosage: 2.5 μg/kg/min at the beginning and adjusted in the range of 0.5 to 5 μg/kg/min
Administration period: continuous intravenous administration is started immediately before the anesthetic induction and kept for 72 hours

[2] = vs control group without administration, after lung cancer surgery

SMILES: CC1(C)OC[C@@H](COC(=O)CCc2ccc(OC[C@@H](O)CNCCNC(=O)N3CCOCC3)cc2)O1 [landiolol hydrochloride, Landiolol hydrochloride]
- Censor, (%) (malignant lung tumor; censored patients, first two postoperative years, test group N = 28): (89.3) %
- 2-year Recurrence-free survival rate [95% CI] (malignant lung tumor; patients after lung resection surgery, intravenous continuous 2.5 μg/kg/min from induction to completion of anesthesia, N = 28, Kaplan-Meier): 89.3%
- Event, (%) (malignant lung tumor; recurrence or death events within first two postoperative years, test group N = 28, 2.5 μg/kg/min iv continuous during anesthesia): (10.7) %
- overall survival (Kaplan-Meier curve, FIG. 2) (malignant lung tumor; [2]): tendency that the administration of landiolol hydrochloride prolongs
- recurrence-free survival (Kaplan-Meier curve, FIG. 1) (malignant lung tumor; [2]): tendency that the administration of landiolol hydrochloride prolongs
- effect to suppress recurrence and/or metastasis of the cancer [1]: confirms the effect
